Reference: US7368470B2, “Substituted 3-pyrrolidine-indole derivatives” (Gruenenthal GmbH, priority 2003, dated 2008)

How the values were obtained:
[1] = molecular target: T1, noradrenalin reuptake (NA uptake) (Rattus norvegicus, UniProt Q9WTR4); experiment: Noradrenalin reuptake inhibition (NA uptake inhibition) in rat brain synaptosomes; type: biochemical; conditions: synaptosomes from male rats' brains
T1 construct: These vesicular particles were isolated from the hypothalamus of male rats' brains for NA uptake; from tissue; host or cells: rat brain synaptosomes (P2 fraction; cerebral cortex / hypothalamus of male rats)
T1 sequence (Q9WTR4 1-597): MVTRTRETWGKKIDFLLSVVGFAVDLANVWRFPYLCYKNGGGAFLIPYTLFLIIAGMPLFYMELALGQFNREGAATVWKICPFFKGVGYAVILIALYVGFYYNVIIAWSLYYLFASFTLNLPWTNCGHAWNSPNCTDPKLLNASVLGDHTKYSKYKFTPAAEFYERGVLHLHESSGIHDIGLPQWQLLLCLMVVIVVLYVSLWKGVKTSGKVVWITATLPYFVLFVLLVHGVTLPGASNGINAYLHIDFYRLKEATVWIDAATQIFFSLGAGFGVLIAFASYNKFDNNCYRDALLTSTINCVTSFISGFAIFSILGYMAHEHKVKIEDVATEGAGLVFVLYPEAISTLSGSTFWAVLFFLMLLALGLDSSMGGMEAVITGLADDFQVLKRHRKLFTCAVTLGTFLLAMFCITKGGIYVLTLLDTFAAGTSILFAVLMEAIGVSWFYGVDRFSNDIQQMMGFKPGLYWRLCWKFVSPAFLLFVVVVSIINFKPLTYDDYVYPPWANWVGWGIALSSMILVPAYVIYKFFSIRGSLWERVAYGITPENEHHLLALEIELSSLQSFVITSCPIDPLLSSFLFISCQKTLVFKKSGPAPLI
Text: b) Tests on Noradrenalin Reuptake Inhibition
In order to be able to carry out these in vitro studies, synaptosomes from rats' cerebral cortices were freshly isolated. A “P2” fraction, prepared according to Gray and Whittaker's instructions (E. G. Gray and V. P. Whittaker (1962) J. Anat. 76, 79-88) was used in each case. These vesicular particles were isolated from the hypothalamus of male rats' brains for NA uptake.
A detailed description of the method may be found in the literature (M. Ch. Frink, H.-H. Hennies, W. Englberger, M. Haurand and B. Wilffert (1996) Arzneim.-Frosch./Drug Res. 46 (III), 11, 1029-1036).

[2] = molecular target: T2, serotonin reuptake (5HT uptake) (Rattus norvegicus, UniProt P31652); experiment: Serotonin reuptake inhibition (5HT uptake inhibition) in rat brain synaptosomes; type: biochemical; conditions: synaptosomes from male rats' brains
T2 construct: These vesicular particles were isolated from the hypothalamus of male rats' brains for 5HT uptake; from tissue; host or cells: rat brain synaptosomes (P2 fraction; cerebral cortex / hypothalamus of male rats)
T2 sequence (P31652 whole entry): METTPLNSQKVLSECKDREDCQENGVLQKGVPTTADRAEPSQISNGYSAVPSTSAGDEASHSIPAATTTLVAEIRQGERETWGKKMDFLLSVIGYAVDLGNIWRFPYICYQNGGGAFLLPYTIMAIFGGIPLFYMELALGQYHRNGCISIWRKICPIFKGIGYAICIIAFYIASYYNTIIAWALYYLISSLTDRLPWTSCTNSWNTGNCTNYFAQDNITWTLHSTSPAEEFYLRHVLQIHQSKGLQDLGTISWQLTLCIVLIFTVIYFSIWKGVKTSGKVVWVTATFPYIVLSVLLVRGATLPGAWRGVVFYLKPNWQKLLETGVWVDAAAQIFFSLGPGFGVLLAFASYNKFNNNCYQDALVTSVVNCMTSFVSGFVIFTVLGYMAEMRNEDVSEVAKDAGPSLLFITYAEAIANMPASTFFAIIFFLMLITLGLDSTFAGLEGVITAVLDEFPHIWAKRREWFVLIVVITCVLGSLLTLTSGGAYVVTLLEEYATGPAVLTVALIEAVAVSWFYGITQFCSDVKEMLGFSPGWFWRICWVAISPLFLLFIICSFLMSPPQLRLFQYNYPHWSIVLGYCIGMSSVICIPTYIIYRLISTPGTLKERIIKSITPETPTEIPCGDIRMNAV
Text: a) Tests on Serotonin Reuptake Inhibition
In order to be able to carry out these in vitro studies, synaptosomes from rats' cerebral cortices were freshly isolated. A “P2” fraction prepared according to Gray and Whittaker's instructions (E. G. Gray and V. P. Whittaker (1962) J. Anat. 76, 79-88) was used in each case. These vesicular particles were isolated from the hypothalamus of male rats' brains for 5HT uptake.
A detailed description of the method may be found in the literature (M. Ch. Frink, H.-H. Hennies, W. Englberger, M. Haurand and B. Wilffert (1996) Arzneim.-Forsch./Drug Res. 46 (III), 11, 1029-1036).

[3] = tested on: binding site 2 of the sodium channel (batrachotoxin (BTX) binding site); experiment: Binding test on the sodium channel, binding site 2 (BTX bond), [3H]-batrachotoxinin A20 α-benzoate as ligand; design: species or system rat; conditions: 10 μM; rat cerebrocortex synaptosomes; ligand 10 nM; 25° C., 120 min

inhibition at 10 µM [1]	SMILES	inhibition at 10 µM [2]	BTX bond, % inhibition [10 μM] [3]	NA-uptake, inhibition [10 μM] [1]	5HT uptake, % inhibition [10 μM] [2]
50%	CN(C)C(=O)Cn1cc(C2CCN(C(=S)Nc3cccc(C(F)(F)F)c3)C2)c2ccccc21 (centres unmarked) [Compound 16, N,N-dimethyl-2-{3-[1-(3-trifluoromethyl-phenylthiocarbamoyl)-pyrrolidin-3-yl]-indol-1-yl}-acetamide]				
49%	O=C(c1ccc(SC(F)(F)F)cc1)N1CCC(c2c[nH]c3ccccc23)C1 (centres unmarked) [Compound 18, [3-(1H-indol-3-yl)-pyrrolidin-1-yl]-(4-trifluoromethylsulphanyl-phenyl)-methanone]	49%			
59%	O=[N+]([O-])c1ccc(S(=O)(=O)N2CCC(c3c[nH]c4ccccc34)C2)cc1 (centres unmarked) [Compound 24, 3-[1-(4-nitro-benzenesulphonyl)-pyrrolidin-3-yl]-1H-indole]	53%			
	Cn1cc(C2CCN(C(=O)C=Cc3ccccc3)C2)c2ccccc21 (centres unmarked) [Compound 26, 1-[3-(1-methyl-1H-indol-3-yl)-pyrrolidin-1-yl]-3-phenyl-propenone]		93%	44	62%
	CCn1cc(C2CCN(C(=O)c3cccnc3)C2)c2ccccc21 (centres unmarked) [Compound 28]			52	41%
44%	CCn1cc(C2CCN(C(=O)c3c(-c4ccccc4Cl)noc3C)C2)c2ccccc21 (centres unmarked) [Compound 32, [3-(2-chloro-phenyl)-5-methyl-isoxazol-4-yl]-[3-(1-ethyl-1H-indol-3-yl)-pyrrolidin-1-yl]-methanone]				
	COc1cccc(Cn2cc(C3CCN(C(=O)CCc4ccccc4)C3)c3ccccc32)c1 (centres unmarked) [Compound 36, 1-{3-[1-(3-methoxy-benzyl)-1H-indol-3-yl]-pyrrolidin-1-yl}-3-phenyl-propan-1-one]	42%	96%		
43%	CSc1ncccc1C(=O)N1CCC(c2cn(C)c3ccccc23)C1 (centres unmarked) [Compound 37, [3-(1-methyl-1H-indol-3-yl)-pyrrolidin-1-yl]-(2-methylsulphanyl-pyridin-3-yl)-methanone]	64%			
	O=C(c1ccc([N+](=O)[O-])cc1Cl)N1CCC(c2cn(Cc3ccc(C(F)(F)F)cc3)c3ccccc23)C1 (centres unmarked) [Compound 39]		90%	41	43%
43%	Cn1cc(C2CCN(C(=O)c3cccnc3Cl)C2)c2ccccc21 (centres unmarked) [Compound 40, (2-chloro-pyridin-3-yl)-[3-(1-methyl-1H-indol-3-yl)-pyrrolidin-1-yl]-methanone]	66%			
43%	COCC(=O)N1CCC(c2cn(Cc3cccc(OC)c3)c3ccccc23)C1 (centres unmarked) [Compound 41, 2-methoxy-1-{3-[1-(3-methoxy-benzyl)-1H-indol-3-yl]-pyrrolidin-1-yl}-ethanone]	44%			
	COc1cccc(Cn2cc(C3CCN(C(=O)c4ccc(C)cc4)C3)c3ccccc32)c1 (centres unmarked) [Compound 43, {3-[1-(3-methoxy-benzyl)-1H-indol-3-yl]-pyrrolidin-1-yl}-p-tolyl-methanone]	48%	92%		
	C#CCn1cc(C2CCN(C(=O)c3cccnc3SC)C2)c2ccccc21 (centres unmarked) [Compound 44, (2-methylsulphanyl-pyridin-3-yl)-[3-(1-prop-2-inyl-1H-indol-3-yl)-pyrrolidin-1-yl]-methanone]			49	60%
	CCn1cc(C2CCN(C(=O)c3ccc(C(F)(F)F)cc3)C2)c2ccccc21 (centres unmarked) [Compound 48, [3-(11-ethyl-1H-indol-3-yl)-pyrrolidin-1-yl]-(4-trifluoromethyl-phenyl)-methanone]			40	43%
100%	CC#CCn1cc(C2CCN(CC(=O)Nc3cc(C)nn3C)C2)c2ccccc21 (centres unmarked) [Compound 49, 2-[3-(1-but-2-ynyl-1H-indol-3-yl)-pyrrolidin-1-yl]-N-(2,5-dimethyl-2H-pyrazol-3-yl)-acetamide]	68%			
57%	CCN(CC)C(=O)Cn1cc(C2CCN(CC(=O)Nc3ccc(C(F)(F)F)cc3)C2)c2ccccc21 (centres unmarked) [Compound 51, N,N-diethyl-2-(3-{1-[(4-trifluoromethyl-phenylcarbamoyl)-methyl]-pyrrolidin-3-yl}-indol-1-yl)-acetamide]				
54%	CCn1cc(C2CCN(CC(=O)Nc3scc(C)c3C#N)C2)c2ccccc21 (centres unmarked) [Compound 52, N-(3-cyano-4-methyl-thiophen-2-yl)-2-[3-(1-ethyl-1H-indol-3-yl)-pyrrolidin-1-yl]-acetamide]	79%			

SMILES	inhibition at 10 µM [1]	inhibition at 10 µM [2]	BTX bond, % inhibition [10 μM] [3]	NA-uptake, inhibition [10 μM] [1]	5HT uptake, % inhibition [10 μM] [2]
O=C(c1ccc([N+](=O)[O-])cc1Cl)N1CCC(c2cn(Cc3cccc(F)c3)c3ccccc23)C1 (centres unmarked) [Compound 20, (2-chloro-4-nitro-phenyl)-{3-[1-(3-fluoro-benzyl)-1H-indol-3-yl]-pyrrolidin-1-yl}-methanone]	43%	89%	91%		
Cc1ccc(F)c(C(=O)N2CCC(c3cn(Cc4ccc(C#N)cc4)c4ccccc34)C2)c1Cl (centres unmarked) [Compound 31, 4-{3-[1-(2-chloro-6-fluoro-3-methyl-benzoyl)-pyrrolidin-3-yl]-indol-1-ylmethyl}-benzonitrile]	41%	62%	92%		
N#Cc1ccc(Cn2cc(C3CCN(C(=O)c4ccc5nonc5c4)C3)c3ccccc32)cc1 (centres unmarked) [Compound 34, 4-{3-[1-(benzo[1,2,5]oxadiazole-5-carbonyl)-pyrrolidin-3-yl]-indol-1-ylmethyl}-benzonitrile]	49%	57%	91%		
CCn1cc(C2CCN(C(=O)CCc3ccccc3)C2)c2ccccc21 (centres unmarked) [Compound 35, 1-[3-(1-ethyl-1H-indol-3-yl)-pyrrolidin-1-yl]-3-phenyl-propan-1-one]	48%	68%	84%		
CCn1cc(C2CCN(C(=O)c3cc(C(F)(F)F)ccc3Cl)C2)c2ccccc21 (centres unmarked) [Compound 38, (2-chloro-5-trifluoromethyl-phenyl)-[3-(1-ethyl-1H-indol-3-yl)-pyrrolidin-1-yl]-methanone]	49%		89%		
Cc1nc(C(F)(F)F)ccc1C(=O)N1CCC(c2cn(Cc3cccc(F)c3)c3ccccc23)C1 (centres unmarked) [Compound 42, {3-[1-(3-fluoro-benzyl)-1H-indol-3-yl]-pyrrolidin-1-yl}-(2-methyl-6-trifluoromethyl-pyridin-3-yl)-methanone]	58%	82%	96%		
Cn1cc(C2CCN(C(=O)c3ccc(-c4ccccc4)cc3)C2)c2ccccc21 (centres unmarked) [Compound 45, Biphenyl-4-yl-[3-(1-methyl-1H-indol-3-yl)-pyrrolidin-1-yl]-methanone]	43%	80%	82%		
COc1cccc(Cn2cc(C3CCN(C(=O)Cc4ccc(Cl)cc4)C3)c3ccccc32)c1 (centres unmarked) [Compound 46, 2-(4-chloro-phenyl)-1-{3-[1-(3-methoxy-benzyl)-1H-indol-3-yl]-pyrrolidin-1-yl}-ethanone]	20%	46%	88%		
